# “And” between values parts separate entries of the source, which are not always exact repeats. Identical values can stand only once. Like-named read-outs stand apart in the source and are kept apart here.
# Legend:
# hP2Y6R = biological target: T1, hP2Y6R (Homo sapiens, UniProt Q15077); assay: UDP (100 nM)-induced Ca2+ mobilization in hP2Y6R stably transfected 1321N1 astrocytoma cells; assay type: cell-based; conditions: for IC50: 3–4 independent triplicate determinations
# T1 construct: expressed in transfected cells
# T1 sequence (Q15077 whole entry): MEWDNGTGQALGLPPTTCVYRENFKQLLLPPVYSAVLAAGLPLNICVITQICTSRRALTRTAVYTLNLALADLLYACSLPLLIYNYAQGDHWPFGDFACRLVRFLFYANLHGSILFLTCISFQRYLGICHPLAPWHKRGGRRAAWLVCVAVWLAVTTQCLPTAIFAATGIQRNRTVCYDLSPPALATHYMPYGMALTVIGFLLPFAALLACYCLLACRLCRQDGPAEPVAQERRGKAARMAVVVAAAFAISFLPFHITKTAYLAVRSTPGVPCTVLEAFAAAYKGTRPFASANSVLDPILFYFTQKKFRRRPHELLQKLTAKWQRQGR
# Method: To screen for P2Y6R antagonist activity, PLC-mediated calcium mobilization assays were carried out using the recombinant human P2Y6R stably expressed in 1321N1 astrocytoma cells (hP2Y6R-1321N1) according to the previously published method. Briefly, the hP2Y6R-1321N1 cells were seeded on 96-well black plates and incubated overnight. The antagonists were pretreated along with the FLIPR dye (Calcium 6 assay kit, Molecular Devices, San Jose, CA, USA) containing 5 mM probenecid for 45 min, prior to agonist addition followed by an immediate intracellular Ca^2+ measurement. […] Here, probenecid was used as an organic anion transporter inhibitor to prevent the efflux of the dye into the extracellular environment. During incubation, the membrane permeable dye enters the cytoplasm and cleaves the acetoxymethyl protection to enable Ca^2+ binding. When the P2Y6R was activated by UDP, the increased calcium concentration was directly measured by intracellular changes in the fluorescence intensity with a Fluorescent Imaging Plate Reader (FLIPR^TETRA, Molecular Devices, San Jose, CA, USA).
# α2A = biological target: T2, α2A (Homo sapiens, UniProt P08913); assay: PDSP binding assay, α2A; conditions: PDSP, mean, n = 2; read-out: Ki, α2A
# T2 construct: NIMH Psychoactive Drug Screening Program (PDSP)
# T2 sequence (P08913 1-465): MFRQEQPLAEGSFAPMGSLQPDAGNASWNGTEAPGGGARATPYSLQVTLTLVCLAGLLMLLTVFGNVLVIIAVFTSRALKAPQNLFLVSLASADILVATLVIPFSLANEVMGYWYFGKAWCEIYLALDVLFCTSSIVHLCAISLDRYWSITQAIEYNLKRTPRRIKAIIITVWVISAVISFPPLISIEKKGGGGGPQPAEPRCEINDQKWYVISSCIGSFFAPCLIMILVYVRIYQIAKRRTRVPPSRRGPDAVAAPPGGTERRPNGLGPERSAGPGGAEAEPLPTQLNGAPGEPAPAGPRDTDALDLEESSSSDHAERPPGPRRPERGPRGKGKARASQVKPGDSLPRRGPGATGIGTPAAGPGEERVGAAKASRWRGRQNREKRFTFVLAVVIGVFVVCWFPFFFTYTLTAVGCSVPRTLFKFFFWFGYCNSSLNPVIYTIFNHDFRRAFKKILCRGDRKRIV
# Source text: (§1) Table S2. Off-target screening (to replace table later). We thank Dr. Bryan L. Roth (Univ. North Carolina at Chapel Hill) and National Institute of Mental Health's Psychoactive Drug Screening Program (Contract # HHSN-271-2008-00025-C) for screening data. Reference: Besnard et al.
# (§2) Procedures: https://pdsp.unc.edu/pdspweb/content/UNC-CH%20Protocol%20Book.pdf […]
# (§3) nucleosides were found at the following sites (human unless noted): 5HT1A, 5HT1B, 5HT1D, […]
# (§4) β3, BZP rat brain site, D1, D2, D3, D4, D5, GABAA, H1, H2, H3, H4, M1, M2, M5, δ-opioid receptor (DOR), κ-opioid receptor (KOR), μ-opioid receptor (MOR), σ1, σ2, DAT, NET, SERT. Ki values […]
# (§5) Compound # PDSP # Receptor LogKi Ki (nM)
# 5-HT1D = biological target: T3, 5-HT1D (Homo sapiens, UniProt P28221); assay: PDSP binding assay, 5-HT1D; conditions: PDSP, mean, n = 2; read-out: Ki, 5-HT1D
# T3 construct: NIMH Psychoactive Drug Screening Program (PDSP)
# T3 sequence (P28221 whole entry): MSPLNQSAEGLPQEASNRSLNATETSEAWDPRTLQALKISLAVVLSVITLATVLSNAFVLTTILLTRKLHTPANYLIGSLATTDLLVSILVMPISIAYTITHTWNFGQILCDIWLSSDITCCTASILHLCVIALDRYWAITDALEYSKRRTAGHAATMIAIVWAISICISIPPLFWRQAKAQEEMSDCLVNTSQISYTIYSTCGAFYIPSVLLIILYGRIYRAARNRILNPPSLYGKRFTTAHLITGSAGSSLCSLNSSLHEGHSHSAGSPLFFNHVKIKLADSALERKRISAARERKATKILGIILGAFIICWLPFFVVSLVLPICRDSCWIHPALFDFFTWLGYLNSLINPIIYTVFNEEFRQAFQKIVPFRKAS
# Source text: as §1, §2, §3, §4, §5
# hP2Y14R [1] = biological target: T4, hP2Y14R (Homo sapiens, UniProt Q15391); assay: whole-cell binding of fluorescent antagonist MRS4174 in CHO-hP2Y14R cells (flow cytometry); conditions: CHO-hP2Y14, competitive binding, flow cytometer
# T4 construct: expressed in transfected cells
# T4 sequence (Q15391 1-338): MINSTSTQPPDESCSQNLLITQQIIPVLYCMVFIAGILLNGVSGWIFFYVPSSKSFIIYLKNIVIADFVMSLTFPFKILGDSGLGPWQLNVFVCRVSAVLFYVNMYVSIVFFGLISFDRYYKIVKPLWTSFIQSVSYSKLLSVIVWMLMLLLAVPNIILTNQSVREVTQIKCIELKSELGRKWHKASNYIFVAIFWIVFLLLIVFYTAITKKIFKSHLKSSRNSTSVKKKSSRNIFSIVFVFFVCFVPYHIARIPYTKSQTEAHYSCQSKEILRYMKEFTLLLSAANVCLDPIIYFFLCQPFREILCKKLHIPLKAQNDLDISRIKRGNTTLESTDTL
# α2B = biological target: T5, α2B (Homo sapiens, UniProt P18089); assay: PDSP binding assay, α2B; conditions: mean, n = 2
# T5 construct: NIMH Psychoactive Drug Screening Program (PDSP)
# T5 sequence (P18089 1-450): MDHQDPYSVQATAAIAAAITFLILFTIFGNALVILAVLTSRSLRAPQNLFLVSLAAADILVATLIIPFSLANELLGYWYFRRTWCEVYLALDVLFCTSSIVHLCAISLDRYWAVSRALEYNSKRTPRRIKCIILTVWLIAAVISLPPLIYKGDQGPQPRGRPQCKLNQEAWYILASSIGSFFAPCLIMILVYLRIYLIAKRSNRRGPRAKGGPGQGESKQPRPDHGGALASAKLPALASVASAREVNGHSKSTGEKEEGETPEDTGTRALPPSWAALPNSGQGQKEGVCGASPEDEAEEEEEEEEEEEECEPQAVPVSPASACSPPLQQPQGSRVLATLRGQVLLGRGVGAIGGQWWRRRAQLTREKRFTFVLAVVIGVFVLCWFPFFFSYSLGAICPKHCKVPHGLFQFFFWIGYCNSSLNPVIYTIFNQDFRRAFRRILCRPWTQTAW
# Source text: as §1, §2, §3, §4, §5
# H1 = biological target: T6, H1 (Homo sapiens, UniProt P35367); assay: PDSP binding assay, H1; conditions: PDSP, mean, n = 2; read-out: Ki, H1
# T6 construct: NIMH Psychoactive Drug Screening Program (PDSP)
# T6 sequence (P35367 whole entry): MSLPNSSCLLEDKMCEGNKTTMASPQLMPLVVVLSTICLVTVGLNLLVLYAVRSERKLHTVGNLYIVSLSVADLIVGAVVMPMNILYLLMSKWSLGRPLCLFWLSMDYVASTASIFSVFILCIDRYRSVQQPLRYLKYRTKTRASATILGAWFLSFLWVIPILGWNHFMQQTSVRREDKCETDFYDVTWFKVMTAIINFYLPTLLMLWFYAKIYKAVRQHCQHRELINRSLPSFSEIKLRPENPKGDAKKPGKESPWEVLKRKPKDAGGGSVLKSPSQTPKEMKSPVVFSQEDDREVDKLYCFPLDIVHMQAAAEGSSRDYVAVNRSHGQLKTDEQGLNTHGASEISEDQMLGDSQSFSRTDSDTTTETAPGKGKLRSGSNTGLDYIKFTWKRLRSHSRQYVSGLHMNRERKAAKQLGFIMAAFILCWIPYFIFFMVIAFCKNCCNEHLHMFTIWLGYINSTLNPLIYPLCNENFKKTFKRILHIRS
# Source text: as §1, §2, §3, §4, §5
# D5 = biological target: T7, D5 (Homo sapiens, UniProt P21918); assay: PDSP binding assay, D5; conditions: PDSP, mean, n = 2; read-out: Ki, D5
# T7 construct: NIMH Psychoactive Drug Screening Program (PDSP)
# T7 sequence (P21918 whole entry): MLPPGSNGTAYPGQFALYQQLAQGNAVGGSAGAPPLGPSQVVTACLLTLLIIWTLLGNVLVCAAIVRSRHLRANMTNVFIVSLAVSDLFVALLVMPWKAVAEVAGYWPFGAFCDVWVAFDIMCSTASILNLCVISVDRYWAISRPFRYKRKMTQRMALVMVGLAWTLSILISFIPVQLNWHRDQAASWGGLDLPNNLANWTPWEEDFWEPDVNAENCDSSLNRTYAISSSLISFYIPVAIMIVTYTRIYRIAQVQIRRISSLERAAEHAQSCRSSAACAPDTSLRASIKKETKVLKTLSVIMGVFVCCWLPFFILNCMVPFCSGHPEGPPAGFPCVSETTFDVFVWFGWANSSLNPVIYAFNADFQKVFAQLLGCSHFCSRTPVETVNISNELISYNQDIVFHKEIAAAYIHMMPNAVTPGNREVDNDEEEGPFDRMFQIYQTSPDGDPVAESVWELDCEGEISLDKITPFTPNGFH
# Source text: as §1, §2, §3, §4, §5
# hP2Y14R [2] = biological target: T4, hP2Y14R; parameters: method as in PMID 28527783, PMID 23235874; conditions: previous members of the series; ref [29],[43]; cited from earlier work
# other P2YRs = conditions: at high µM concentrations; ref [29],[43]; cited from earlier work
# [3] = UDP 100 nM, read-out: IC50, hP2Y6R (Mean ± SEM)
smiles,measurement,setting,value
"CC(C)(C)n1nc(-c2nc3cc(Cl)ccc3[nH]2)cc1-c1ccco1 [Compound 4, reference compound]",inhibition at 100 µM,"hP2Y6R; 1321-N1, at 100 µM, UDP 100 nM",18.9 ± 8.5%
same,IC50,"hP2Y6R; IC50, hP2Y6R (Mean ± SEM), UDP 100 nM",> 100 µM
O=[N+]([O-])C1=Cc2cc(C#CCCCCCCCCBr)ccc2OC1C(F)(F)F (centres unmarked) [Compound 19],IC50,hP2Y6R; [3],14 ± 4.7 µM
NCCCCCCCC#Cc1ccc2c(c1)C=C([N+](=O)[O-])C(C(F)(F)F)O2 (centres unmarked) [Compound 32],IC50,hP2Y6R; [3],6.37 ± 1.82 µM
CC(C)(C)OC(=O)NCCCC#Cc1ccc2c(c1)C=C([N+](=O)[O-])C(C(F)(F)F)O2 (centres unmarked) [Compound 22],IC50,hP2Y6R; [3],1.87 ± 0.11 µM
NCCCCCCCCC#Cc1ccc2c(c1)C=C([N+](=O)[O-])C(C(F)(F)F)O2 (centres unmarked) [Compound 34],IC50,hP2Y6R; [3],20 ± 5.2 µM
CC(C)(C)OC(=O)NCCCCCCCC#Cc1cccc2c1OC(C(F)(F)F)C([N+](=O)[O-])=C2 (centres unmarked) [Compound 37],Ki,α2A,5.2 µM
same,Ki,5-HT1D,3.5 µM
same,IC50,hP2Y14R [1],31.2 ± 12.2 µM
same,IC50,hP2Y6R; [3],4.96 ± 1.96 µM
same,fold lower affinity compared to 30,hP2Y6R; hP2Y6R IC50 ratio,31 fold
same,Ki,α2B,4.8 µM
same,Ki,H1,7.3 µM
same,Ki,D5,4.2 µM
O=[N+]([O-])C1=Cc2cc(C#Cc3ccc(O)cc3)ccc2OC1C(F)(F)F (centres unmarked) [Compound 15],hP2Y14R binding,hP2Y14R [2],inactive
O=[N+]([O-])C1=Cc2ccc(Cl)cc2OC1C(F)(F)F (centres unmarked) [Compound 7],hP2Y14R binding,hP2Y14R [2],inactive
CC(C)(C)OC(=O)NCCCCCCC#Cc1ccc2c(c1)C=C([N+](=O)[O-])C(C(F)(F)F)O2 (centres unmarked) [Compound 28],IC50,hP2Y6R; [3],10.5 ± 6.5 µM
NCCCC#Cc1ccc2c(c1)C=C([N+](=O)[O-])C(C(F)(F)F)O2 (centres unmarked) [Compound 23],IC50,hP2Y6R; [3],9.98 ± 1.37 µM
CC[Si](C#Cc1cccc2c1OC(C(F)(F)F)C([N+](=O)[O-])=C2)(CC)CC (centres unmarked) [Compound 14],inhibition at most other P2YRs,other P2YRs,minor
NCCCCCC#Cc1ccc2c(c1)C=C([N+](=O)[O-])C(C(F)(F)F)O2 (centres unmarked) [Compound 27],IC50,hP2Y6R; [3],12.4 ± 1.3 µM
CC(C)(C)OC(=O)NCCCCCC#Cc1ccc2c(c1)C=C([N+](=O)[O-])C(C(F)(F)F)O2 (centres unmarked) [Compound 26],Ki,α2A,0.75 µM
same,Ki,5-HT1D,4.8 µM
same,IC50,hP2Y6R; [3],1.19 ± 0.25 µM
same,Ki,α2B,1.7 µM
NCCCCCCCCC#Cc1cccc2c1OC(C(F)(F)F)C([N+](=O)[O-])=C2 (centres unmarked) [Compound 40],IC50,hP2Y6R; [3],20 to 30 µM and 34.8 µM
NCCCCCCCC#Cc1cccc2c1OC(C(F)(F)F)C([N+](=O)[O-])=C2 (centres unmarked) [Compound 38],IC50,hP2Y6R; [3],13 ± 3.9 µM

# Source: PMC11352859, “Functionalized Congeners of 2H-Chromene P2Y6 Receptor Antagonists” (Cells, 2024)
